Data set [1] is described as follows: Solubility in aqueous solution. In kind it is physicochemical.
Data set [2] has as its system human peripheral blood lymphocytes (PBL). Kind of data set: BrdU incorporation proliferation assay in human PBL. In kind it is cell-based. The settings on record: for proliferation stimulating activity, in words: conclusions from Table 1. The protocol: The T101 peptide was tested for its ability to activate proliferation of mouse spleenocytes or thymocytes (two mouse strains were used: CD1 and Balb/C), as well as human peripheral blood lymphocytes (PBL). The proliferation activity was measured by 5-bromo 2′-deoxy-uridine (BrdU) incorporation into these cells.
Human PBL were isolated on a Ficole gradient from blood taken from volunteers and then plated in 96-well plates, again using RPMI 1640+10% FCS+Pen/Str.
The cells were treated with different concentrations of the peptide or saline (as above) and after 48 hours were labeled for 6 hours with BrdU and tested for BrdU incorporation into their nucleus.
In the next experiment, several deletion mutants of the T101 peptide were constructed and synthesized. These mutants were tested for their ability to stimulate proliferation in human PBL. The right-hand column indicates the fold increase in proliferation over proliferation in untreated cells.
(In general: Dividing cells build labelled thymidine or BrdU into new DNA.)

The source of these data is patent publication US8071716B2, “Thymus-specific protein” (Immune System Key Ltd., priority 2004, dated 2011).

Where no end group is shown, it is not given here.

Turning to “LHLWLSGEPVQSSGTKDMRSKSDSKRVSDKQLISKAVWWTFFLPSTLWERK [T101 peptide]”, the “solubility in an aqueous solution” value in data set [1] was “soluble”.
For the substance “Mut #1: 13 C-terminal amino acids of the T101 peptide: WTFFLPSTLWERK (listed as Homo sapiens)”, in data set [2], the “Fold Increase in proliferation over proliferation in untreated cells” value (from here on “Fold Increase in proliferation”) was 2.5-3 Fold and the “proliferation stimulating activity, in words” value was “very active”.
On to “Mut #2: amino acids 6 to 28 of the T101 peptide: SGEPVQSSGTKDMRSKSDSKRVS (listed as Homo sapiens)”, for which, in data set [2], the “Fold Increase in proliferation” value is recorded as 1.4-1.6 Fold and the “proliferation stimulating activity, in words” value is given as “relatively low activity”.
With “Mut #3: 23 C-terminal amino acids of the T101 peptide: DKQLISKAVWWTFFLPSTLWERK (listed as Homo sapiens)”, in data set [2], the “Fold Increase in proliferation” value is recorded as 2.2-2.8 Fold and the “proliferation stimulating activity, in words” value is recorded as “very active”.
Consider “Mut #4: 8 C-terminal amino acids of the T101 peptide: PSTLWERK (Table 1 prints PSTLTWERK) (listed as Homo sapiens)”, for which, in data set [2], the “Fold Increase in proliferation” value is reported as 1.1-1.3 Fold and the “proliferation stimulating activity, in words” value was “almost no activity”.
Regarding “Mut #5: amino acids 36 to 48 of the T101 peptide: AVWWTFFLPSTLW (listed as Homo sapiens)”, in data set [2], the “Fold Increase in proliferation” value is reported as 2-2.2 Fold.
Same read-out and setting: for “Mut #6: amino acids 36 to 51 of the T101 peptide in the reverse order: KREWLTSPLFFTWWVA (listed as Homo sapiens)” the value was 2-2.4 Fold.
